The record followed here is PubChem BioAssay AID330 (DTP/NCI, 2004).

“And” between values parts separate entries of the source, which are not always exact repeats. Equal entries are not always repeated. Toxic doses and inconclusive results are not listed.

The subject of the assay is P388 leukemia ip, CD2F1 mice, survival T/C. The assay is described as follows: NCI In Vivo Anticancer Drug Screen. Data for tumor model P388 Leukemia (intraperitoneal) in CD2F1 (CDF1) mice. The settings on record: endpoint: median survival time, higher = longer survival. The gist of the method:
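Mice carrying the transplanted tumor received test compound or vehicle. Survival was recorded in each group, and the value is the treated-group measurement divided by that of the vehicle-treated control group.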

Setting [1] is: dose: 50.0 mg/kg/injection, schedule: Q01DX005 (ip), vehicle: Klucel (hydroxypropylcellulose) (HPC).
[2] abbreviates: dose: 100.0 mg/kg/injection, schedule: Q01DX005 (ip), vehicle: Klucel (hydroxypropylcellulose) (HPC).
Where [3] appears, read: dose: 200.0 mg/kg/injection, schedule: Q01DX005 (ip), vehicle: Klucel (hydroxypropylcellulose) (HPC).
Setting [4] is: dose: 60.0 mg/kg/injection, schedule: Q01DX005 (ip), vehicle: saline with Tween-80.
Setting [5] is: dose: 120.0 mg/kg/injection, schedule: Q01DX005 (ip), vehicle: saline with Tween-80.
[6] abbreviates: dose: 240.0 mg/kg/injection, schedule: Q01DX005 (ip), vehicle: saline with Tween-80.
Where [7] appears, read: dose: 12.5 mg/kg/injection, schedule: Q01DX005 (ip), vehicle: saline.
The mark [8] stands for this setting: dose: 25.0 mg/kg/injection, schedule: Q01DX005 (ip), vehicle: saline.
The mark [9] stands for this setting: dose: 50.0 mg/kg/injection, schedule: Q01DX009 (ip), vehicle: saline with Tween-80.
The mark [10] stands for this setting: dose: 200.0 mg/kg/injection, schedule: Q01DX009 (ip), vehicle: saline with Tween-80.
The mark [11] stands for this setting: dose: 50.0 mg/kg/injection, schedule: Q01DX005 (ip), vehicle: saline.
Where [12] appears, read: dose: 100.0 mg/kg/injection, schedule: Q01DX005 (ip), vehicle: saline.
Setting [13] is: dose: 50.0 mg/kg/injection, schedule: Q01DX009 (ip), vehicle: saline.
[14] abbreviates: dose: 100.0 mg/kg/injection, schedule: Q01DX009 (ip), vehicle: saline.
The mark [15] stands for this setting: dose: 25.0 mg/kg/injection, schedule: Q01DX009 (ip), vehicle: Klucel (hydroxypropylcellulose) (HPC).

For `COc1cc2c(/C=N/NC(N)=S)c(Cl)[nH]c2cc1C`, the T/C is 105 % of control (dose: 25.0 mg/kg/injection, schedule: Q04DX003 (ip), vehicle: saline with Tween-80); 107 % of control (dose: 50.0 mg/kg/injection, schedule: Q04DX003 (ip), vehicle: saline with Tween-80); 102 % of control (dose: 100.0 mg/kg/injection, schedule: Q01DX001 (ip), vehicle: saline with Tween-80); 90 % of control (dose: 100.0 mg/kg/injection, schedule: Q04DX003 (ip), vehicle: saline with Tween-80); 100 % of control (dose: 200.0 mg/kg/injection, schedule: Q01DX001 (ip), vehicle: saline with Tween-80); 98 % of control (dose: 200.0 mg/kg/injection, schedule: Q04DX003 (ip), vehicle: saline with Tween-80). The T/C (dose: 400.0 mg/kg/injection, schedule: Q01DX001 (ip), vehicle: saline with Tween-80) was 90 % of control.
As for `C=C1C(=O)O[C@@H]2/C=C(/C)C3=CC(=O)[C@@](C)(C[C@@H](OC(=O)C(C)CC)C12)O3` (some centres not stated), the T/C is 100 % of control (dose: 10.0 mg/kg/injection, schedule: Q01DX005 (ip), vehicle: Klucel (hydroxypropylcellulose) (HPC)); 102 % of control (dose: 20.0 mg/kg/injection, schedule: Q01DX005 (ip), vehicle: Klucel (hydroxypropylcellulose) (HPC)); 114 % of control (dose: 40.0 mg/kg/injection, schedule: Q01DX005 (ip), vehicle: Klucel (hydroxypropylcellulose) (HPC)); 108 % of control (dose: 80.0 mg/kg/injection, schedule: Q01DX005 (ip), vehicle: Klucel (hydroxypropylcellulose) (HPC)).
For the compound `C[C@@H]1C(=O)OCC2=C3C[C@@H](CC[C@@]3(C)C=CC2=O)[C@H](C)C(=O)OCC2=C3C[C@H]1CC[C@@]3(C)C=CC2=O`, the T/C is, setting by setting: under setting [1], 100 % of control; under setting [2], 101 % of control; under setting [3], 95 % of control.
As for `Cc1ccc(S(=O)(=O)NNC(=O)CCn2[nH]c(=O)c(Cl)c(Cl)c2=O)cc1`, the T/C under setting [4] is 99 % of control, the T/C under setting [5] was 103 % of control and the T/C under setting [6] was 98 % of control.
Regarding `Cc1ccc(S(=O)(=O)OC2CCC3(C)C(CCC4C3CCC3(C)C(C(C)CCCC(C)C)CCC43)C2)cc1` (configuration not stated), the T/C reads like this: (dose: 3.0 mg/kg/injection, schedule: Q01DX005 (ip), vehicle: Klucel (hydroxypropylcellulose) (HPC)) 107 % of control; (dose: 6.0 mg/kg/injection, schedule: Q01DX005 (ip), vehicle: Klucel (hydroxypropylcellulose) (HPC)) 117 % of control; (dose: 12.5 mg/kg/injection, schedule: Q01DX005 (ip), vehicle: Klucel (hydroxypropylcellulose) (HPC)) 100 % of control.
Regarding `O=c1[nH]cc(N=Cc2ccccc2F)c(=O)[nH]1`, the T/C was 92 % of control (dose: 50.0 mg/kg/injection, schedule: Q01DX009 (ip), vehicle: suspension in saline); 100 % of control (dose: 100.0 mg/kg/injection, schedule: Q01DX009 (ip), vehicle: suspension in saline); 96 % of control (dose: 200.0 mg/kg/injection, schedule: Q01DX009 (ip), vehicle: suspension in saline).
Turning to `O=C(NN1C(=O)CSC1c1ccc(Cl)cc1Cl)c1ccncc1` (configuration not stated), the T/C reads like this: (dose: 25.0 mg/kg/injection, schedule: Q01DX005 (ip), vehicle: saline with Tween-80) 101 % of control; (dose: 50.0 mg/kg/injection, schedule: Q01DX005 (ip), vehicle: saline with Tween-80) 98 % of control; (dose: 100.0 mg/kg/injection, schedule: Q01DX005 (ip), vehicle: saline with Tween-80) 93 % of control; under setting [5], 100 % of control; under setting [6], 90 % of control.
`CCC(CC)NCCCNc1cc(OC)cc2cccnc12`: the T/C under setting [7] was 108 % of control and the T/C under setting [8] was 104 % of control.
For the compound `CCOC(=O)C(=O)c1cn(C)c(=O)n(C)c1=O`, the T/C was 106 % of control under setting [9]; 104 % of control (dose: 100.0 mg/kg/injection, schedule: Q01DX009 (ip), vehicle: saline with Tween-80); 104 % of control under setting [10].
On to `NCCC[Se]CC(N)C(=O)O` (configuration not stated), for which the T/C is 100 % of control under setting [7]; 102 % of control under setting [8]; 95 % of control (dose: 25.0 mg/kg/injection, schedule: Q04DX003 (ip), vehicle: saline); 104 % of control under setting [11]; 111 % of control (dose: 50.0 mg/kg/injection, schedule: Q04DX003 (ip), vehicle: saline); 102 % of control under setting [12]. For the same compound, where the note is “dose: 100.0 mg/kg/injection, schedule: Q04DX003 (ip), vehicle: saline”, the T/C was 110 % of control and 119 % of control.
As for `O=[N+]([O-])c1cccn2cnnc12`, the T/C is 98 % of control under setting [13] and 87 % of control under setting [14].
As to `CC(C)N=C(N)/N=C(\N)Nc1ccc2ccc3ccccc3c2c1`, the T/C runs as follows: (dose: 6.25 mg/kg/injection, schedule: Q01DX009 (ip), vehicle: Klucel (hydroxypropylcellulose) (HPC)) 105 % of control; (dose: 12.5 mg/kg/injection, schedule: Q01DX009 (ip), vehicle: Klucel (hydroxypropylcellulose) (HPC)) 113 % of control; under setting [15], 103 % of control.
On to `O=S1(=O)CCN(Cc2ccncc2)CC1`, for which the T/C is 100 % of control under setting [13]; 98 % of control under setting [14]; 100 % of control (dose: 200.0 mg/kg/injection, schedule: Q01DX009 (ip), vehicle: saline).
As to `CC(=O)Oc1n[nH]c(=O)n1-c1ccccc1`, the T/C was 107 % of control (dose: 50.0 mg/kg/injection, schedule: Q01DX005 (ip), vehicle: Klucel + Tween-80); 107 % of control (dose: 100.0 mg/kg/injection, schedule: Q01DX005 (ip), vehicle: Klucel + Tween-80); 98 % of control (dose: 200.0 mg/kg/injection, schedule: Q01DX005 (ip), vehicle: Klucel + Tween-80).
Take `N#C/C(OC1OC(CO)C(O)C(O)C1O)=C(\C=C/C(=O)O)CC(=O)O` (configuration not stated): the T/C is 105 % of control under setting [11]; 106 % of control under setting [12]; 105 % of control (dose: 200.0 mg/kg/injection, schedule: Q01DX005 (ip), vehicle: saline).
Take `O=S(=O)(F)C(Br)(Br)S(=O)(=O)F`: the T/C was 97 % of control under setting [1] and 97 % of control under setting [2].
Regarding `CC(=O)NS(=O)(=O)c1ccc(N)cc1`, the T/C was 109 % of control (dose: 100.0 mg/kg/injection, schedule: Q01DX009 (ip), vehicle: saline sonified); 104 % of control (dose: 132.0 mg/kg/injection, schedule: Q01DX009 (ip), vehicle: saline with Tween-80); 104 % of control under setting [10]; 113 % of control (dose: 300.0 mg/kg/injection, schedule: Q01DX009 (ip), vehicle: saline with Tween-80); 104 % of control (dose: 400.0 mg/kg/injection, schedule: Q01DX009 (ip), vehicle: saline sonified).
For `C(CCOCC1CO1)COCC1CO1` (configuration not stated), the T/C is, setting by setting: under setting [15], 108 % of control and 111 % of control; (dose: 50.0 mg/kg/injection, schedule: Q01DX009 (ip), vehicle: Klucel (hydroxypropylcellulose) (HPC)) 110 % of control; (dose: 100.0 mg/kg/injection, schedule: Q01DX009 (ip), vehicle: Klucel (hydroxypropylcellulose) (HPC)) 117 % of control.
Regarding `O=C1COc2ccccc2OCCOCCOc2ccccc2OC1`, the T/C is, setting by setting: under setting [4], 97 % of control; under setting [5], 98 % of control; under setting [6], 96 % of control.
For the compound `IP1c2ccccc2P2P(I)c3ccccc3P12` (configuration not stated), the T/C is 102 % of control under setting [1], 108 % of control under setting [2] and 105 % of control under setting [3].
Consider `O=C1CCCC2=C1C(c1ccccc1)C1=C(CCCC1=O)O2`, for which the T/C by setting is: under setting [4], 100 % of control; under setting [5], 94 % of control; under setting [6], 92 % of control.
Regarding `O=C1C2C3C=CC(C2C(=O)N1CO)C1C2C(=O)N(CO)C(=O)C2C31` (configuration not stated), the T/C was 105 % of control (dose: 12.5 mg/kg/injection, schedule: Q01DX009 (ip), vehicle: water); 157 % of control (dose: 25.0 mg/kg/injection, schedule: Q01DX009 (ip), vehicle: water); 195 % of control under setting [9]; 208 % of control (dose: 50.0 mg/kg/injection, schedule: Q01DX009 (ip), vehicle: water).
